The structures appear in SMILES notation. Read-outs that look alike come from different tables or passages of the source. Where only a bound is given, the exact number is not on record here.

Common to all, as to format: cell-based
Experiment [1] concerns the target T1, CK1α (Homo sapiens, UniProt P48729+Q96SW2). Kind of experiment: CK1α HiBiT assay in CK1a_HiBiT_Jurkat cells. The note with it: DC50 class, 16 hours, Nano-Glo HiBiT Lytic Detection, read-out: CK1α degradation classification. The protocol: CK1a_HiBiT_Jurkat cells were culture in RPMI 1640 medium (Gibco, 11875093) with 10% FBS under standard tissue culture conditions. Briefly, Compounds of the present disclosure was added to 30,000 cells in a white 96-well plate (9-point dose response, top concentration […], half-log serial dilution, final DMSO concentration 0.5%) and incubated for 16 hours. CK1a level was determined in along with the Nano-Glo HiBiT Lytic Detection system [Promega N3050] with final concentration of 1 x. The luminescence was normalized to that of DMSO-treated samples. DC50 values were obtained using three-parameter non-linear regressions using Prism (GraphPad). The compounds are classified based on DC50 values as follows. • A: DC50 is less than or equal to 1×10^−7; • B: DC50 is greater than 1×10^−7 & less than or equal to 1×10^−6; • C: DC50 is greater than 1×10^−6; • NA: not calculated (no activity detected, <25% viability reduction at 1 uM)

Experiment [2] has as its system MV-4-11 cells. Briefly: AML cell viability assay (RealTime-Glo). As to conditions: Homo sapiens, MV4-11, IC50 class, MV-4-11 cells, read-out: Cell viability classification.
In experiment [3] the target is T1, CK1α. Briefly: CK1α degradation, flow cytometry in MV4-11 cells. The note with it: % reduction of CK1α compared to DMSO, MV4-11 cells at 316 nM for 16 hours, read-out: CK1α degradation classification. Details: CK1α levels were determined in MV-4-11 cells using Jess (Protein Simple); host or cells: MV-4-11. Background: In flow cytometry, cells or beads pass a laser one at a time.

Setting [4] is: RealTime-Glo after 44 hrs of treatment (TABLE 5).
The mark [5] stands for this setting: RealTime-Glo after 44 hrs of treatment (TABLE 3).

T1 sequence (P48729 whole entry): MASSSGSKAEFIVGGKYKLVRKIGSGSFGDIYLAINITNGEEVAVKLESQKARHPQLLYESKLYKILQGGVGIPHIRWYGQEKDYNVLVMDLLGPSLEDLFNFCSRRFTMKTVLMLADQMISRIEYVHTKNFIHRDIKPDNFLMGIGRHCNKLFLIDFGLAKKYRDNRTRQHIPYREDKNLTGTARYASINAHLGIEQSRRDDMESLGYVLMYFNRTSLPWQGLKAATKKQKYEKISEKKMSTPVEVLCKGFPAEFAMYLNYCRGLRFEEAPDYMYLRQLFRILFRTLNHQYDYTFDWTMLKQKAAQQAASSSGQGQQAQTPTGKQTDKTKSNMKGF
T1 sequence (Q96SW2 whole entry): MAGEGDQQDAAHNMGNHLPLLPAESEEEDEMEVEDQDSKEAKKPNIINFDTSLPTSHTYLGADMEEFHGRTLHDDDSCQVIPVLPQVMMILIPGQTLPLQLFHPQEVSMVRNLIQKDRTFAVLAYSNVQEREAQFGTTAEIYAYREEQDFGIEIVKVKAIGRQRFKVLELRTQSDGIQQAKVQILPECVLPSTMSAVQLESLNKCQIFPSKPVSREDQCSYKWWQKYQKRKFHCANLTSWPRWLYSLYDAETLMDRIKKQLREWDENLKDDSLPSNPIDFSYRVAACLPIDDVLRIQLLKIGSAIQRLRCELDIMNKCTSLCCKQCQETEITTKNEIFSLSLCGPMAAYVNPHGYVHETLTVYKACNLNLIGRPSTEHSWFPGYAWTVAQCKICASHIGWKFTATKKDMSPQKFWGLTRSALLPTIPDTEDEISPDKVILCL
T1 sequence (Q16531 whole entry partner): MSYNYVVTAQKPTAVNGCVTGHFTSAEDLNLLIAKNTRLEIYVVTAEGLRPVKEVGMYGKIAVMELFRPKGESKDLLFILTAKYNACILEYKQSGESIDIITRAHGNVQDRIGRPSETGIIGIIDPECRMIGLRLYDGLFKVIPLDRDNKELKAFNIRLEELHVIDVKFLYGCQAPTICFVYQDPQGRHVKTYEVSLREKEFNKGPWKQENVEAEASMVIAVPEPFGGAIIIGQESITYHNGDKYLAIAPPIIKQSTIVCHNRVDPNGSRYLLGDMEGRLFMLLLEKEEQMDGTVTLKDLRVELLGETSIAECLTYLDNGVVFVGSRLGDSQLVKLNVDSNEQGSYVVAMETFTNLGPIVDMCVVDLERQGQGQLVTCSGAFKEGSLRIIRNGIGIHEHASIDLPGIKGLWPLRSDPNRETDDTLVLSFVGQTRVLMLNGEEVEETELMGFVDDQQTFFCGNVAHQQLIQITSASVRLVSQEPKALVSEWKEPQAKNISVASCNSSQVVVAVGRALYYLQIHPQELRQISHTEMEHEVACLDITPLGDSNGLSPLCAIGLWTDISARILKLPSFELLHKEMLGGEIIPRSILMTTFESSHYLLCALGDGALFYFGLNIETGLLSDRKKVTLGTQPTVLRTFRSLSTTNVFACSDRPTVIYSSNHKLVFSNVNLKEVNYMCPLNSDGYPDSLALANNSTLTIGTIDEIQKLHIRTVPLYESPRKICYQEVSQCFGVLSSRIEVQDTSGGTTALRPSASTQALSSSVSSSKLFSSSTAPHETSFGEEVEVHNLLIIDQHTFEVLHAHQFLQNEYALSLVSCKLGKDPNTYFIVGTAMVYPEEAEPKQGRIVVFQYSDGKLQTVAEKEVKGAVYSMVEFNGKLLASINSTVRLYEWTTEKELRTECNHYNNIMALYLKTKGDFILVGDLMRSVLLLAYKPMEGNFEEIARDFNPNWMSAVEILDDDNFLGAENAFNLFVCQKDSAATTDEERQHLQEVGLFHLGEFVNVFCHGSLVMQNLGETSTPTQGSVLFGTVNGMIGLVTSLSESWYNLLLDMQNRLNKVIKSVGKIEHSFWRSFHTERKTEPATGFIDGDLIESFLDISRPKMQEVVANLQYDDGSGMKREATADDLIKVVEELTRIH

In the case of `CC1(C)CC(CN(c2cccc3c2CN(C2CCC(=O)NC2=O)C3=O)[C@H]2CC[C@H](NCCC(F)(F)F)CC2)C1` (single isomer, unassigned) [Compound 652A, 3-(4-{[(3,3-dimethylcyclobutyl)methyl][(1s,4s)-4-[(3,3,3-trifluoropropyl)amino]cyclohexyl]amino}-1-oxo-3H-isoindol-2-yl)piperidine-2,6-dione; bis(trifluoroacetic acid)], the DC50 in experiment [1] was more than 1000 nM. Besides, the IC50 in experiment [2] (setting [4]) is more than 1000 nM.
`C[C@@H](N[C@H]1CC[C@H](N(CCC2CC2)c2cccc3c2CN(C2CCC(=O)NC2=O)C3=O)CC1)C(F)(F)F` (stereo partly drawn) [Compound 548, 3-(4-((2-cyclopropylethyl)((1r,4r)-4-(((R)-1,1,1-trifluoropropan-2-yl)amino)cyclohexyl)amino)-1-oxoisoindolin-2-yl)piperidine-2,6-dione]: the Dmax at 0.316 µM in experiment [3] was less than 50%. The IC50 in experiment [2] (setting [5]) lay in the range of 100 to 1000 nM.
For `C[C@@H](N[C@H]1CC[C@@H](N(CCC2CC2)c2cccc3c2CN(C2CCC(=O)NC2=O)C3=O)CC1)C(F)(F)F` (stereo partly drawn) [Compound 548A, 3-(4-((2-cyclopropylethyl)((1s,4s)-4-(((R)-1,1,1-trifluoropropan-2-yl)amino)cyclohexyl)amino)-1-oxoisoindolin-2-yl)piperidine-2,6-dione] the same measures were 50 to 75% and 100 to 1000 nM.
In the case of `O=C1CCC(N2Cc3c(cccc3N(CCC3CC3)[C@H]3CC[C@@H](NCCCC(F)(F)F)CC3)C2=O)C(=O)N1` (stereo partly shown) [Compound 642A], the DC50 in experiment [1] is not above 100 nM. Further, in experiment [2] (setting [4]), the IC50 was more than 1000 nM.
On to `O=C1CCC(N2Cc3c(cccc3N(CCC3CC3)[C@H]3CC[C@H](NCCC(F)F)CC3)C2=O)C(=O)N1` (stereo partly shown) [Compound 643, 3-{4-[(2-cyclopropylethyl)[(1r,4r)-4-[(3,3-difluoropropyl)amino]cyclohexyl]amino]-1-oxo-3H-isoindol-2-yl}piperidine-2,6-dione; trifluoroacetic acid], for which, in experiment [1], the DC50 is not above 100 nM. In addition, the IC50 in experiment [2] (setting [4]) was less than 100 nM.
Consider `O=C1CCC(N2Cc3c(cccc3N(CCC3CC3)[C@H]3CC[C@H](NC45CC(C(F)(F)F)(C4)C5)CC3)C2=O)C(=O)N1` (stereo partly shown) [Compound 646, 3-{4-[(2-cyclopropylethyl)[(1r,4r)-4-{[3-(trifluoromethyl)bicyclo[1.1.1]pentan-1-yl]amino}cyclohexyl]amino]-1-oxo-3H-isoindol-2-yl}piperidine-2,6-dione; trifluoroacetic acid], for which the DC50 in experiment [1] was not above 100 nM. Further, in experiment [2] (setting [4]), the IC50 lay within 100 to 1000 nM.
For `O=C1CCC(N2Cc3c(cccc3N(CC3CC(F)(F)C3)[C@H]3CC[C@H](NCCC(F)(F)F)CC3)C2=O)C(=O)N1` (stereo partly shown) [Compound 650, 3-(4-{[(3,3-difluorocyclobutyl)methyl][(1r,4r)-4-[(3,3,3-trifluoropropyl)amino]cyclohexyl]amino}-1-oxo-3H-isoindol-2-yl)piperidine-2,6-dione] the same measures were not above 100 nM and 100 to 1000 nM.
Regarding `O=C1CCC(N2Cc3c(cccc3N(CC3CC(F)(F)C3)[C@H]3CC[C@@H](NCCC(F)(F)F)CC3)C2=O)C(=O)N1` (stereo partly shown) [Compound 650A, 3-(4-{[(3,3-difluorocyclobutyl)methyl][(1s,4s)-4-[(3,3,3-trifluoropropyl)amino]cyclohexyl]amino}-1-oxo-3H-isoindol-2-yl)piperidine-2,6-dione], the DC50 in experiment [1] is more than 1000 nM.
As for `O=C1CCC(N2Cc3c(cccc3N(CC3CC4(CCC4)C3)[C@H]3CC[C@H](NCCC(F)(F)F)CC3)C2=O)C(=O)N1` (stereo partly shown) [Compound 651, 3-(1-oxo-4-{[(1r,4r)-4-[(3,3,3-trifluoropropyl)amino]cyclohexyl]({spiro[3.3]heptan-2-ylmethyl})amino}-3H-isoindol-2-yl)piperidine-2,6-dione; trifluoroacetic acid], the DC50 in experiment [1] is not above 100 nM. Moreover, in experiment [2] (setting [4]), the IC50 is more than 1000 nM.
As for `CC1(C)CC(CN(c2cccc3c2CN(C2CCC(=O)NC2=O)C3=O)[C@H]2CC[C@H](NCCC(F)(F)F)CC2)C1` (stereo partly shown) [Compound 652, 3-(4-{[(3,3-dimethylcyclobutyl)methyl][(1r,4r)-4-[(3,3,3-trifluoropropyl)amino]cyclohexyl]amino}-1-oxo-3H-isoindol-2-yl)piperidine-2,6-dione; bis(trifluoroacetic acid)], the DC50 in experiment [1] is not above 100 nM. In experiment [2] (setting [4]), the IC50 was more than 1000 nM.
For the compound `O=C1CCC(N2Cc3c(cccc3N(CC3CC(F)(F)C3)[C@H]3CC[C@H](NCC4(C(F)(F)F)CC4)CC3)C2=O)C(=O)N1` (stereo partly shown) [Compound 655, 3-(4-{[(3,3-difluorocyclobutyl)methyl][(1r,4r)-4-({[1-(trifluoromethyl)cyclopropyl]methyl}amino)cyclohexyl]amino}-1-oxo-3H-isoindol-2-yl)piperidine-2,6-dione], the DC50 in experiment [1] lay in the range of 100 to 1000 nM. Also, the IC50 in experiment [2] (setting [4]) is more than 1000 nM.
With `O=C1CCC(N2Cc3c(cccc3N(CC3CC(F)(F)C3)[C@H]3CC[C@@H](NCC4(C(F)(F)F)CC4)CC3)C2=O)C(=O)N1` (stereo partly shown) [Compound 655A, 3-(4-{[(3,3-difluorocyclobutyl)methyl][(1s,4s)-4-({[1-(trifluoromethyl)cyclopropyl]methyl}amino)cyclohexyl]amino}-1-oxo-3H-isoindol-2-yl)piperidine-2,6-dione], the DC50 in experiment [1] was more than 1000 nM.
As for `O=C1CCC(N2Cc3c(cccc3N(CC3CC4(CCC4)C3)[C@H]3CC[C@@H](NCC4(C(F)(F)F)CC4)CC3)C2=O)C(=O)N1` (stereo partly shown) [Compound 656A, 3-(1-oxo-4-{[(1s,4s)-4-({[1-(trifluoromethyl)cyclopropyl]methyl}amino)cyclohexyl]({spiro[3.3]heptan-2-ylmethyl})amino}-3H-isoindol-2-yl)piperidine-2,6-dione; trifluoroacetic acid], in experiment [1], the DC50 was more than 1000 nM.
In the case of `CC1(C)CC(CN(c2cccc3c2CN(C2CCC(=O)NC2=O)C3=O)[C@H]2CC[C@@H](NCC3(C(F)(F)F)CC3)CC2)C1` (stereo partly shown) [Compound 657A, 3-(4-{[(3,3-dimethylcyclobutyl)methyl][(1s,4s)-4-({[1-(trifluoromethyl)cyclopropyl]methyl}amino)cyclohexyl]amino}-1-oxo-3H-isoindol-2-yl)piperidine-2,6-dione; bis(trifluoroacetic acid)], in experiment [1], the DC50 is more than 1000 nM.
On to `O=C1CCC(N2Cc3c(cccc3N(CCC3CC3)[C@H]3CC[C@@H](N4CCCC4)CC3)C2=O)C(=O)N1` (stereo partly shown) [Compound 669A], for which, in experiment [1], the DC50 lay in the range of 100 to 1000 nM.
On the same count and under the same terms, next, `O=C1CCC(N2Cc3c(cccc3N(CCC3CC3)[C@H]3CC[C@@H](N4CCC(F)(F)C4)CC3)C2=O)C(=O)N1` (stereo partly shown) [Compound 670A]: 100 to 1000 nM.
Take `O=C1CCC(N2Cc3c(cccc3N(CCC3CC3)[C@H]3CC[C@@H](N4CCC(F)C4)CC3)C2=O)C(=O)N1` (stereo partly shown) [Compound 671A, 3-{4-[(2-cyclopropylethyl)[(1s,4s)-4-(3-fluoropyrrolidin-1-yl)cyclohexyl]amino]-1-oxo-3H-isoindol-2-yl}piperidine-2,6-dione]: the DC50 in experiment [1] was in the range of 100 to 1000 nM.
Same read-out and setting: next, `O=C1CCC(N2Cc3c(cccc3N(CCC3CC3)[C@H]3CC[C@@H](N4CCC(C(F)(F)F)C4)CC3)C2=O)C(=O)N1` (stereo partly shown) [Compound 672A, 3-{4-[(2-cyclopropylethyl)[(1s,4s)-4-[3-(trifluoromethyl)pyrrolidin-1-yl]cyclohexyl]amino]-1-oxo-3H-isoindol-2-yl}piperidine-2,6-dione; trifluoroacetic acid]: 100 to 1000 nM.
Regarding `O=C1CCC(N2Cc3c(cccc3N(CCC3CC3)[C@H]3CC[C@@H](N4CC(C(F)(F)F)C4)CC3)C2=O)C(=O)N1` (stereo partly shown) [Compound 673A], the DC50 in experiment [1] lay within 100 to 1000 nM.
Still for that read-out and setting: next, `O=C1CCC(N2Cc3c(cccc3N(CCC3CC3)[C@H]3CC[C@@H](N4CCOCC4)CC3)C2=O)C(=O)N1` (stereo partly shown) [Compound 674A, 3-{4-[(2-cyclopropylethyl)[(1s,4s)-4-(morpholin-4-yl)cyclohexyl]amino]-1-oxo-3H-isoindol-2-yl}piperidine-2,6-dione]: 100 to 1000 nM; `O=C1CCC(N2Cc3c(cccc3N(CCC3CC3)[C@H]3CC[C@@H](N[C@H]4CC[C@@H]4C(F)(F)F)CC3)C2=O)C(=O)N1` (stereo partly drawn) [Compound 675A, 3-{4-[(2-cyclopropylethyl)[(1s,4s)-4-{[(1S,2S)-2-(trifluoromethyl)cyclobutyl]amino}cyclohexyl]amino]-1-oxo-3H-isoindol-2-yl}piperidine-2,6-dione; bis(trifluoroacetic acid)]: 100 to 1000 nM.
Turning to `COCCN(C)[C@H]1CC[C@@H](N(CCC2CC2)c2cccc3c2CN(C2CCC(=O)NC2=O)C3=O)CC1` (stereo partly shown) [Compound 680A], the DC50 in experiment [1] was 100 to 1000 nM.
With `CN(CCCC(F)(F)F)[C@H]1CC[C@@H](N(CCC2CC2)c2cccc3c2CN(C2CCC(=O)NC2=O)C3=O)CC1` (stereo partly shown) [Compound 681A, 3-{4-[(2-cyclopropylethyl)[(1s,4s)-4-[methyl(4,4,4-trifluorobutyl)amino]cyclohexyl]amino]-1-oxo-3H-isoindol-2-yl}piperidine-2,6-dione], the DC50 in experiment [1] is 100 to 1000 nM.
The same measure, in the same setting: next, `CN(CCC(F)(F)F)[C@H]1CC[C@@H](N(CCC2CC2)c2cccc3c2CN(C2CCC(=O)NC2=O)C3=O)CC1` (stereo partly shown) [Compound 682A]: 100 to 1000 nM.

(Values after patent US20250188069A1, “COMPOUNDS AND METHODS FOR DEGRADING CASEIN KINASE 1 ALPHA” (PIN THERAPEUTICS, INC., priority 2022, published 2025).)
